Toxic doses and inconclusive results are not listed. Rule as the data show it: active = T/C of 150% or more; inactive = T/C below 125%.
Tested on: L1210 leukemia ip in BDF1 mice, survival T/C
Assay: NCI In Vivo Anticancer Drug Screen. Data for tumor model L1210 Leukemia (intraperitoneal) in B6D2F1 (BDF1) mice
Conditions: endpoint: mean survival time, higher = longer survival
In short: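 Transplanted-tumor mice were given test agent; controls received vehicle only. Survival readings from the two groups were divided (treated over control).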

[1] = dose: 100.0 mg/kg/injection, schedule: Q01DX009 (ip), vehicle: saline with Tween-80
[2] = dose: 100.0 mg/kg/injection, schedule: Q04DX003 (ip), vehicle: saline with Tween-80
[3] = dose: 200.0 mg/kg/injection, schedule: Q04DX003 (ip), vehicle: saline with Tween-80
[4] = dose: 400.0 mg/kg/injection, schedule: Q01DX009 (ip), vehicle: saline with Tween-80
[5] = dose: 400.0 mg/kg/injection, schedule: Q04DX003 (ip), vehicle: saline with Tween-80
[6] = dose: 100.0 mg/kg/injection, schedule: Q04DX003 (ip), vehicle: Klucel (hydroxypropylcellulose) (HPC)
[7] = dose: 200.0 mg/kg/injection, schedule: Q04DX003 (ip), vehicle: Klucel (hydroxypropylcellulose) (HPC)

Measured: T/C

CCCCCCCS(=O)(=O)CCCCCCC
inactive: dose: 25.6 mg/kg/injection, schedule: Q04DX002 (ip), vehicle: saline with Tween-80 95 % of control | dose: 64.0 mg/kg/injection, schedule: Q04DX002 (ip), vehicle: saline with Tween-80 91 % of control | [1] 94 % of control | [2] 93 % of control | dose: 160.0 mg/kg/injection, schedule: Q04DX002 (ip), vehicle: saline with Tween-80 91 % of control | dose: 200.0 mg/kg/injection, schedule: Q01DX009 (ip), vehicle: saline with Tween-80 94 % of control | [3] 95 % of control | [4] 98 % of control | dose: 400.0 mg/kg/injection, schedule: Q04DX002 (ip), vehicle: saline with Tween-80 95 % of control | [5] 90 % of control

C/C(=N/N=C(N)N)c1ccc(Cl)cc1
inactive: dose: 15.0 mg/kg/injection, schedule: Q01DX Z (ip), vehicle: carboxymethylcellulose (CMC) 96 % of control | dose: 15.0 mg/kg/injection, schedule: Q01DX Z (oral), vehicle: carboxymethylcellulose (CMC) 108 % of control | dose: 30.0 mg/kg/injection, schedule: Q01DX Z (ip), vehicle: carboxymethylcellulose (CMC) 95 % of control | dose: 30.0 mg/kg/injection, schedule: Q01DX Z (oral), vehicle: carboxymethylcellulose (CMC) 104 % of control | dose: 60.0 mg/kg/injection, schedule: Q01DX Z (oral), vehicle: carboxymethylcellulose (CMC) 98 % of control

Nc1cccc(C(=O)CC(=O)Nc2nccs2)c1
inactive: dose: 50.0 mg/kg/injection, schedule: Q04DX003 (ip), vehicle: Klucel (hydroxypropylcellulose) (HPC) 90 % of control | dose: 100.0 mg/kg/injection, schedule: Q01DX001 (ip), vehicle: Klucel (hydroxypropylcellulose) (HPC) 98 % of control | [6] 95 % of control | dose: 200.0 mg/kg/injection, schedule: Q01DX001 (ip), vehicle: Klucel (hydroxypropylcellulose) (HPC) 103 % of control | [7] 90 % of control | dose: 400.0 mg/kg/injection, schedule: Q01DX001 (ip), vehicle: Klucel (hydroxypropylcellulose) (HPC) 98 % of control

O=C1NC(=O)C2C3C=CC(C12)C1C2C(=O)NC(=O)C2C31 (stereo not given)
inactive: dose: 12.5 mg/kg/injection, schedule: Q01DX009 (ip), vehicle: saline with Tween-80 102 % of control | dose: 25.0 mg/kg/injection, schedule: Q01DX009 (ip), vehicle: saline with Tween-80 95 % of control | dose: 50.0 mg/kg/injection, schedule: Q01DX009 (ip), vehicle: saline with Tween-80 111 % of control | [4] 90 % of control
active: [1] 178 % of control

COc1ccccc1CN1CCCN(Cc2ccccc2OC)C1c1ccc(C2N(Cc3ccccc3OC)CCCN2Cc2ccccc2OC)cc1
inactive: dose: 100.0 mg/kg/injection, schedule: Q01DX001 (ip), vehicle: acetone 102 % of control | dose: 200.0 mg/kg/injection, schedule: Q01DX001 (ip), vehicle: acetone 96 % of control | dose: 400.0 mg/kg/injection, schedule: Q01DX001 (ip), vehicle: acetone 96 % of control

CN1CCOC1=Nc1cccc2c1CCCC2
inactive: dose: 50.0 mg/kg/injection, schedule: Q01DX009 (ip), vehicle: other 96 % of control | dose: 100.0 mg/kg/injection, schedule: Q01DX009 (ip), vehicle: other 101 % of control | dose: 400.0 mg/kg/injection, schedule: Q01DX009 (ip), vehicle: other 95 % of control

O=c1oc2cccc(O)c2c2c1CCCC2
inactive: dose: 100.0 mg/kg/injection, schedule: Q01DX009 (ip), vehicle: Klucel (hydroxypropylcellulose) (HPC) 95 % of control | [6] 97 % of control | dose: 200.0 mg/kg/injection, schedule: Q01DX009 (ip), vehicle: Klucel (hydroxypropylcellulose) (HPC) 90 % of control | [7] 95 % of control | dose: 400.0 mg/kg/injection, schedule: Q01DX009 (ip), vehicle: Klucel (hydroxypropylcellulose) (HPC) 90 % of control | dose: 400.0 mg/kg/injection, schedule: Q04DX003 (ip), vehicle: Klucel (hydroxypropylcellulose) (HPC) 93 % of control

COc1ccccc1CN1CCCN(Cc2ccccc2OC)C1c1ccc(N(CCCl)CCCl)cc1
inactive: dose: 50.0 mg/kg/injection, schedule: Q01DX001 (ip), vehicle: carboxymethylcellulose (CMC) 115 % of control | dose: 100.0 mg/kg/injection, schedule: Q01DX001 (ip), vehicle: carboxymethylcellulose (CMC) 104 % of control | dose: 200.0 mg/kg/injection, schedule: Q01DX001 (ip), vehicle: carboxymethylcellulose (CMC) 104 % of control | dose: 400.0 mg/kg/injection, schedule: Q01DX001 (ip), vehicle: carboxymethylcellulose (CMC) 104 % of control

Cc1c(Cl)c(C)c(Cl)c(O)c1Cl
inactive: [2] 97 % of control | [3] 96 % of control | [5] 97 % of control

— PubChem BioAssay AID248 (DTP/NCI, 2004)
